Results taken from patent publication US4424226A, “Pyridobenzodiazepinones, pharmaceutical compositions thereof and method of use thereof” (Dr. Karl Thomae GmbH, priority 1982, dated 1984).

How the values were obtained:
[1] = target: muscarinic receptors (cerebral cortex); assay: Binding to muscarinic receptors, cerebral cortex (inhibition of specific 3H-NMS binding); set-up: species or system rat (Sprague-Dawley); conditions: 0.3 nM 3H-NMS, 45 min, 30° C., pH 7.4, read-out: Receptor Binding Tests IC50, Cortex
Protocol: (§1) 3. Studies of binding to muscarinic receptors: Determination of the IC50 value
(§2) The organ donors were male Sprague-Dawley rats with a body weight of from about 180 to 220 gm each. After the heart, stomach, and cerebral cortex had been removed, the remainder of the operation was carried out in ice-cold Hepes-HCl buffer (pH 7.4; 100 m molar NaCl, 10 m molar MgCl2). The smooth muscle of the fundus of the stomach was separated from the mucous membrane of the stomach and subjected to preliminary homogenization. The whole heart was cut up with scissors. All the organs were then homogenized in a Potter apparatus.
(§3) For the bonding test, the homogenized organs were diluted as follows:
(§4) The homogenized organ preparations were incubated at a specific concentration of the radioligand and with a series of concentrations of the non-radioactive test substances in an Eppendorf centrifuge tube at 30° C. The duration of incubation was 45 minutes. The substance 0.3 n molar ^3 H-N-methylscopolamine (^3 H-NMS) was used as the radioligand. After incubation had been brought to an end by centrifuging at 14,000 g, the radioactivity in the pellet was determined. […] The proportion of non-specific bonding was defined as the radioactivity which was bonded in the presence of 1μ molar quinuclidinylbenzylate. […] The IC50 values of the non-labelled test substances were determined graphically. […]

[2] = target: T1, muscarinic receptors (smooth muscle of the fundus of the stomach) (Rattus norvegicus); assay: Binding to muscarinic receptors, smooth muscle of the fundus of the stomach (inhibition of specific 3H-NMS binding); set-up: species or system rat (Sprague-Dawley); conditions: 0.3 nM 3H-NMS, 45 min, 30° C., pH 7.4, read-out: Receptor Binding Tests IC50, Smooth Muscle Fundus of Stomach
T1 construct: The smooth muscle of the fundus of the stomach was separated from the mucous membrane of the stomach; from tissue; host or cells: smooth muscle of the stomach fundus of male Sprague-Dawley rats, homogenate
Protocol: as §1, §2, §3
Smooth muscle of the fundus
as §4

[3] = target: T2, muscarinic receptors (heart) (Rattus norvegicus, UniProt P10980); assay: Binding to muscarinic receptors, whole heart (inhibition of specific 3H-NMS binding); set-up: species or system rat (Sprague-Dawley); conditions: 0.3 nM 3H-NMS, 45 min, 30° C., pH 7.4, read-out: Receptor Binding Tests IC50, Heart
T2 construct: The whole heart was cut up with scissors; All the organs were then homogenized in a Potter apparatus; from tissue; host or cells: whole heart of male Sprague-Dawley rats, homogenate
T2 sequence (P10980 1-466): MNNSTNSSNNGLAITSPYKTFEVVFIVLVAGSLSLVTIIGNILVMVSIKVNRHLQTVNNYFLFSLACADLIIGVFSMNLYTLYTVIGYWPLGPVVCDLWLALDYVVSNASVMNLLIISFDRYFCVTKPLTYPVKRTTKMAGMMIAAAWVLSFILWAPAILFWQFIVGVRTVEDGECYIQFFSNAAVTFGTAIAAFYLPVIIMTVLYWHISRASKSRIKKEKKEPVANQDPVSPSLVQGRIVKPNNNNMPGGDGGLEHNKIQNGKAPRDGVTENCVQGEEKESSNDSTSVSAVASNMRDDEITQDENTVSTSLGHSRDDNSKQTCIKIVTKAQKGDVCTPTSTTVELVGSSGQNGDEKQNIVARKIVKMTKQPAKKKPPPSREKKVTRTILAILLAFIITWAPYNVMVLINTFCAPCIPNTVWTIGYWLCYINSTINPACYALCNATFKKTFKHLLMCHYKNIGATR
Protocol: as §1, §2, §3, §4

muscarinic receptors [4] = assay: Oxotremorine test: protection against oxotremorine-induced lesions in the mucous membrane of the stomach; format: in vivo, rat (female albino, Crl:COBS-CD (SD) BR); conditions: i.v.; rats; oxotremorine 0.62 mg/kg i.v. after neostigmine 1 mg/kg oral; % animals without lesions
Protocol: (§5) Oxotremorine, a specific agonist for muscarinic receptors produces lesions in the mucous membrane of the stomach in rats and increases their secretion of saliva. This test method was chosen so that any selective activity of an antimuscarinic substance on the stomach could be identified.
(§6) Ten female albino rats (of the Crl:COBS-CD (SD) BR strain) with a body weight of from 120 to 150 gm apiece were used in each treatment group and were kept without food for 24 hours before the start of the test but given free access to drinking water.
(§7) To determine, in preliminary tests, the muscarinic effect of oxotremorine on each of the symptoms studied, a dosage/activity curve was drawn up with at least three dosages for each symptom.
(§8) When the antimuscarinic substances were tested, the dosage of oxotremorine which triggered the symptom in question in 90 to 100% of the animals in the preliminary tests was used.
Each antimuscarinic substance was administered intravenously in uniformly graduated doses 15 minutes before the oxotremorine was administered. Control groups were given corresponding quantities of the solvent and suspension agent instead of the test substance. Immediately after the oxotremorine was administered, the animals were placed in a glass case for 15 minutes and observed.
(§9) The ED50 values were determined using the method described by Litchfield and Wilcoxon (J. Pharmacol. Exp. Ther. 96, 99, 1949).
The effects on lesions of the mucous membrane of the stomach were evaluated as follows:
The lesions of the gastric mucous membrane were produced by intravenous injection of 0.62 mg/kg of oxotremorine 30 minutes after the oral administration of 1 mg/kg of neostigmine (a cholinesterase inhibitor). […] The protective effect of the test substances was expressed as the percentage inhibition (percentage of animals without lesions). The ED50 and ED70 values were determined using the method of LITCHFIELD and WILCOXON (see above).

muscarinic receptors [5] = assay: Oxotremorine test: inhibition of oxotremorine-induced secretion of saliva; format: in vivo, rat (female albino, Crl:COBS-CD (SD) BR); conditions: i.v., 15 min before oxotremorine 0.083 mg/kg i.v.; rats
Protocol: as §5, §6, §7, §8
Secretion of saliva 0.083 mg/kg i.v.
Each antimuscarinic substance was administered intravenously in uniformly graduated doses 15 minutes before the oxotremorine was administered. Control groups were given corresponding quantities of the solvent and suspension agent instead of the test substance. […]
as §9

[6] = Testing for mydriasis (effect on pupil size); conditions: rat, in vivo, iv; rats; pupil observed 10 minutes
Protocol: The effect of the test substances on the pupil size in rats was investigated as follows:
The substances were administered intravenously to groups of 10 animals in at least three uniformly graduated doses. The pupil size was then observed for 10 minutes to see if there were any changes (mydriasis or miosis). […] The percentage of test animals in which mydriasis occurred was determined. The ED50 values were again determined during the method of LITCHFIELD and WILCOXON (see above).

`CN1[C@@H]2CC[C@H]1C[C@@H](CC(=O)N1c3ccccc3C(=O)Nc3cccnc31)C2` [B, endo-5,11-dihydro-11-[(8-methyl-8-azabicyclo[3.2.1]oct-3-yl)acetyl]-6H-pyrido[2,3-b][1,4]benzodiazepin-6-one] showed an IC50 [1] of 50 nM, an IC50 [2] of 700 nM and an IC50 [3] of 150 nM. The “Oxotremorine Test, Anti-ulcerative Effect ED70” value (muscarinic receptors [4]) was 0.037 mg/kg, the “Oxotremorine Test, Inhibition of Salivation ED50” value (muscarinic receptors [5]) was 0.3 mg/kg and the ED50 at 10 min [6] was 0.22 mg/kg.

Work on `CN1CC=C(CC(=O)N2c3ccccc3C(=O)Nc3cccnc32)CC1` [A, 5,11-dihydro-11-[(1-methyl-1,2,5,6-tetrahydro-4-pyridinyl)acetyl]-6H-pyrido[2,3-b][1,4]benzodiazepin-6-one] yielded an IC50 [1] of 50 nM, an IC50 [2] of 200 nM and an IC50 [3] of 170 nM. The “Oxotremorine Test, Anti-ulcerative Effect ED50” value (muscarinic receptors [4]) was 0.0011 mg/kg, the “Oxotremorine Test, Anti-ulcerative Effect ED70” value (muscarinic receptors [4]) was 0.002 mg/kg and the “Oxotremorine Test, Inhibition of Salivation ED50” value (muscarinic receptors [5]) was 0.028 mg/kg. The ED50 at 10 min [6] was 0.074 mg/kg.
